Results as given in US20240058339A1, “COMBINATION THERAPY FOR CANCERS WITH KRAS MUTATION” (COTHERA BIOSCIENCE, INC., priority 2019, published 2024).

Tested on: KRAS mutant colorectal cancer cells
Experiment: Cellular senescence assay, separate examples with single drugs
Format: cell-based
Procedure: Senescence is a state when cells enter a stable growth arrest. Unlike a quiescent cell, a senescent cell will not re-enter the cell cycle in response to any known physiological stimuli. A biomarker of senescence is the increased level of β-galactosidase activity at pH 6.0. Cellular senescence assay was performed with Senescence β-Galactosidase Cell Staining Kit (Cell Signaling, USA) according to the manufacturer's instructions. Briefly, cells cultured in 6-well tissue culture plates were treated with the designated drugs or DMSO. The cells were continually incubated for additional 4-8 days before being fixed for further testing. For senescence assay, b-Galactosidase Staining Solution was added to the fixed cells and the plates were incubated at 37° C. to allow color to develop. Microscopic images were then taken and the cells in senescence were indicated by the development of blue color (shown as black spots in the figures). The experimental design is the same as in Example 15.

Compound | induction of cell senescence
COc1cccc2c1C(=O)c1c(O)c3c(c(O)c1C2=O)C[C@@](O)(C(=O)CO)C[C@@H]3O[C@H]1C[C@H](N)[C@H](O)[C@H](C)O1 [doxorubicin] | did not induce cell senescence
COc1cc([C@@H]2c3cc4c(cc3[C@@H](O[C@@H]3O[C@@H]5CO[C@@H](C)O[C@H]5[C@H](O)[C@H]3O)[C@H]3COC(=O)[C@H]23)OCO4)cc(OC)c1O [etoposide] | did not induce cell senescence
